# From the SangsterLogP compilation
# Test: method code SF, from DOI: 10.1021/jm00128a037, PMID: 2754714
row,logP,Compound
1,-0.37,CCCOC(=O)Cc1cc(CN2CCCC2)c(O)c(CN2CCCC2)c1
2,0.1,CC(C)COC(=O)Cc1cc(CN2CCCC2)c(O)c(CN2CCCC2)c1
3,-0.74,CCOC(=O)Cc1cc(CN2CCCC2)c(O)c(CN2CCCC2)c1
4,-0.21,CC(C)OC(=O)CCc1cc(CN2CCCC2)c(O)c(CN2CCCC2)c1
5,-0.11,CCCOC(=O)CCc1cc(CN2CCCC2)c(O)c(CN2CCCC2)c1
6,0.3,CCCCOC(=O)CCc1cc(CN2CCCC2)c(O)c(CN2CCCC2)c1
7,0.19,CC(C)COC(=O)CCc1cc(CN2CCCC2)c(O)c(CN2CCCC2)c1
8,0.18,CCCCOC(=O)Cc1cc(CN2CCCC2)c(O)c(CN2CCCC2)c1
9,1.11,CCCCOC(=O)CCCc1cc(CN2CCCC2)c(O)c(CN2CCCC2)c1
10,0.86,CC(C)COC(=O)CCCc1cc(CN2CCCC2)c(O)c(CN2CCCC2)c1
11,-0.41,CC(C)OC(=O)Cc1cc(CN2CCCC2)c(O)c(CN2CCCC2)c1
